Reference: article PMC3853718 (Journal of Translational Medicine, 2013)

Test system: subjects with advanced malignancies
Assay: Phase 1 dose escalation: toxicity, safety and tolerability (DLT, MAD, RP2D, AEs)
Settings: for TEAE: Abdominal distension / TEAE: Abdominal pain / TEAE: Anemia / TEAE: Asthenia / TEAE: Back pain / TEAE: Constipation / TEAE: Cough / TEAE: Decreased appetite / TEAE: Dehydration / TEAE: Diarrhea / TEAE: Dizziness / TEAE: Dyspnea / TEAE: Fatigue / TEAE: Flatulence / TEAE: Hyperbilirubinemia / TEAE: Hyperglycemia / TEAE: Hyperuricemia / TEAE: Hypokalemia / TEAE: Hypophosphatemia / TEAE: Increased ALP / TEAE: Increased ALT / TEAE: Increased AST / TEAE: Nausea / TEAE: Neutropenia / TEAE: Peripheral edema / TEAE: Pyrexia / TEAE: Subjects with any AE / TEAE: Urinary tract infection / TEAE: Vomiting / TEAE: Weight decreased: ≤ 5.08 mg/m^2 (n = 22)

`CCc1cnn2c(NCc3ccc[n+]([O-])c3)cc(N3CCCC[C@H]3CCO)nc12` [dinaciclib] was tested, and the “Subjects with DLT in cycle 1” value (Dose level 14 mg/m^2, 5 subjects) was 2, the “treatment-related AE: anemia” value (RP2D 12 mg/m^2, 11 subjects) was 5 [45%] subjects [%] and the “treatment-related AE: asthenia” value (RP2D 12 mg/m^2, 11 subjects) was 3 [27%] subjects [%]. For the same molecule, the “treatment-related AE: fatigue” value (RP2D 12 mg/m^2, 11 subjects) was 4 [36%] subjects [%], the “treatment-related AE: hyperuricemia” value (RP2D 12 mg/m^2, 11 subjects) was 3 [27%] subjects [%] and the “treatment-related AE: nausea” value (RP2D 12 mg/m^2, 11 subjects) was 3 [27%] subjects [%]. The “treatment-related AE: neutropenia” value (RP2D 12 mg/m^2, 11 subjects) was 4 [36%] subjects [%], the “treatment-related AE: pyrexia” value (RP2D 12 mg/m^2, 11 subjects) was 3 [27%] subjects [%] and the “treatment-related AE: vomiting” value (RP2D 12 mg/m^2, 11 subjects) was 3 [27%] subjects [%]. The Serious adverse events (Subject 2901, Breast carcinoma, 0.33 mg/m^2, regardless of causality) was “Anemia, confusion, lethargy”, the Serious adverse events (Subject 2914, Ovarian epithelial carcinoma, 3.63 mg/m^2, regardless of causality) was “Constipation, nausea, abdominal pain, vomiting” and the Serious adverse events (Subject 2915, Adenocarcinoma, 3.63 mg/m^2, regardless of causality) was “Hypocalcemia, hypokalemia, hypophosphatemia, coagulation time prolonged”. For the same molecule, the Serious adverse events (Subject 2919, Colon cancer, 3.63 mg/m^2, regardless of causality) was “Back pain, chest pain, dyspnea”, the Serious adverse events (Subject 2920, Melanoma, 3.63 mg/m^2, regardless of causality) was “Cholelithiasis, liver disorder” and the Serious adverse events (Subject 2922, Ovarian epithelial cancer, 3.63 mg/m^2, regardless of causality) was “Intestinal ischemia, pericardial effusion”. The Serious adverse events (Subject 2926, Pelvic sarcoma, 7.11 mg/m^2, regardless of causality) was “Deep vein thrombosis, anemia”, the Serious adverse events (Subject 2927, Gastric adenocarcinoma, 7.11 mg/m^2, regardless of causality) was “Vomiting, aspiration” and the Serious adverse events (Subject 2928, Gastrointestinal stromal tumor, 7.11 mg/m^2, regardless of causality) was “Gastric ulcer, hematemesis, asthenia, sepsis, dyspnea, mental status changes, overdose”. For the same molecule, the Serious adverse events (Subject 2930, SCLC, 7.11 mg/m^2, regardless of causality) was “Cardiac arrest”, the Serious adverse events (Subject 2931, Esophageal carcinoma, 7.11 mg/m^2, regardless of causality) was “Esophageal obstruction, pyrexia, hemorrhagic anemia” and the Serious adverse events (Subject 2937, Adenoid cyst carcinoma, 14 mg/m^2, regardless of causality) was “Pneumothorax, cardiac tamponade, pneumoperitoneum, intestinal perforation, peritonitis, sepsis”. The Serious adverse events (Subject 2940, Breast carcinoma, 14 mg/m^2, regardless of causality) was “Death”, the Serious adverse events (Subject 2945, NSCLC, 12 mg/m^2, regardless of causality) was “Cerebrovascular accident” and the Serious adverse events (Subject 2947, Colorectal cancer, 12 mg/m^2, regardless of causality) was “Pelvic abscess, septic shock, deep vein thrombosis”. For the same molecule, the Serious adverse events (Subject 2950, Colon cancer, 12 mg/m^2, regardless of causality) was “Deep vein thrombosis, bradycardia, respiratory failure, syncope, tumor lysis syndrome”, the Serious adverse events (Subject 2951, Ovarian metastatic cancer, 12 mg/m^2, regardless of causality) was “Anemia, neutropenic sepsis, sepsis, gastrointestinal hemorrhage, diarrhea, bacterial infection, neutropenia, thrombocytopenia” and the “SAE: anemia” value (all dose levels) was 3 (6%) subjects (%). The “SAE: deep vein thrombosis” value (all dose levels) was 3 (6%) subjects (%), the “SAE: sepsis” value (all dose levels) was 3 (6%) subjects (%) and the “grade 3 or 4 treatment-related AE: hyperuricemia” value (all dose levels) was 3 [6%] subjects [%]. The “grade 3 or 4 treatment-related AE: neutropenia” value (all dose levels) was 5 [10%] subjects [%], the “subjects with AEs leading to discontinuation of treatment” value (all dose levels) was 6 (13%) subjects (%) and the “subjects with grade 3 or 4 treatment-related AEs” value (all dose levels) was 16 subjects. The “subjects with serious AEs (SAEs)” value (all dose levels) was 17 (33%) subjects (%), the “treatment-related AE: anemia” value (all dose levels) was 10 [21%] subjects [%] and the “treatment-related AE: fatigue” value (all dose levels) was 7 [15%] subjects [%]. The “treatment-related AE: nausea” value (all dose levels) was 16 [33%] subjects [%], the “treatment-related AE: neutropenia” value (all dose levels) was 8 [17%] subjects [%] and the “treatment-related AE: vomiting” value (all dose levels) was 8 [17%] subjects [%]. For the same molecule, the “subjects reporting treatment-emergent adverse events” value (all dose levels, 48 treated) was 47 (98%) subjects (%), the “subjects with AEs possibly related to study drug” value (all dose levels, 48 treated) was 35 (73%) subjects (%) and the “instances of grade 2 toxicity” value (at 1.32 mg/m^2) was 2. For the same molecule, the “deaths due to disease progression” value (of 52 enrolled, considered unlikely related to study treatment) was 7 [13%] subjects [%], the “deaths due to AEs” value (of 52 enrolled, deemed unlikely related to dinaciclib, one subject never treated) was 4 (8%) subjects (%) and the “subjects who died during this study” value (of the 52 subjects enrolled) was 21%. For the same molecule, the “TEAE: Abdominal distension” value (All grades) was 3 (14) n (%), the “TEAE: Abdominal pain” value (All grades) was 4 (18) n (%) and the “TEAE: Anemia” value (All grades) was 8 (36) n (%). For the same molecule, the “TEAE: Asthenia” value (All grades) was 4 (18) n (%), the “TEAE: Back pain” value (All grades) was 8 (36) n (%) and the “TEAE: Constipation” value (All grades) was 5 (23) n (%). The “TEAE: Cough” value (All grades) was 3 (14) n (%), the “TEAE: Decreased appetite” value (All grades) was 9 (41) n (%) and the “TEAE: Dehydration” value (All grades) was 8 (36) n (%). The “TEAE: Diarrhea” value (All grades) was 3 (14) n (%), the “TEAE: Dizziness” value (All grades) was 0 n (%) and the “TEAE: Dyspnea” value (All grades) was 3 (14) n (%). The “TEAE: Fatigue” value (All grades) was 7 (32) n (%), the “TEAE: Flatulence” value (All grades) was 3 (14) n (%) and the “TEAE: Hyperbilirubinemia” value (All grades) was 5 (23) n (%). The “TEAE: Hyperglycemia” value (All grades) was 1 (5) n (%), the “TEAE: Hyperuricemia” value (All grades) was 1 (5) n (%) and the “TEAE: Hypokalemia” value (All grades) was 2 (9) n (%). For the same molecule, the “TEAE: Hypophosphatemia” value (All grades) was 4 (18) n (%), the “TEAE: Increased ALP” value (All grades) was 3 (14) n (%) and the “TEAE: Increased ALT” value (All grades) was 3 (14) n (%). The “TEAE: Increased AST” value (All grades) was 3 (14) n (%), the “TEAE: Nausea” value (All grades) was 6 (27) n (%) and the “TEAE: Neutropenia” value (All grades) was 0 n (%). For the same molecule, the “TEAE: Peripheral edema” value (All grades) was 3 (14) n (%), the “TEAE: Pyrexia” value (All grades) was 3 (14) n (%) and the “TEAE: Subjects with any AE” value (All grades) was 21 (95) n (%). The “TEAE: Urinary tract infection” value (All grades) was 5 (23) n (%), the “TEAE: Vomiting” value (All grades) was 2 (9) n (%) and the “TEAE: Weight decreased” value (All grades) was 4 (18) n (%). The “TEAE: Abdominal distension” value (Grade 3–4) was 0 n (%), the “TEAE: Abdominal pain” value (Grade 3–4) was 1 (5) n (%) and the “TEAE: Anemia” value (Grade 3–4) was 1 (5) n (%). For the same molecule, the “TEAE: Asthenia” value (Grade 3–4) was 2 (9) n (%), the “TEAE: Back pain” value (Grade 3–4) was 3 (14) n (%) and the “TEAE: Constipation” value (Grade 3–4) was 0 n (%). For the same molecule, the “TEAE: Cough” value (Grade 3–4) was 0 n (%), the “TEAE: Decreased appetite” value (Grade 3–4) was 0 n (%) and the “TEAE: Dehydration” value (Grade 3–4) was 0 n (%). For the same molecule, the “TEAE: Diarrhea” value (Grade 3–4) was 0 n (%), the “TEAE: Dizziness” value (Grade 3–4) was 0 n (%) and the “TEAE: Dyspnea” value (Grade 3–4) was 1 (5) n (%). For the same molecule, the “TEAE: Fatigue” value (Grade 3–4) was 2 (9) n (%), the “TEAE: Flatulence” value (Grade 3–4) was 0 n (%) and the “TEAE: Hyperbilirubinemia” value (Grade 3–4) was 3 (14) n (%). For the same molecule, the “TEAE: Hyperglycemia” value (Grade 3–4) was 0 n (%), the “TEAE: Hyperuricemia” value (Grade 3–4) was 1 (5) n (%) and the “TEAE: Hypokalemia” value (Grade 3–4) was 1 (5) n (%). For the same molecule, the “TEAE: Hypophosphatemia” value (Grade 3–4) was 3 (14) n (%), the “TEAE: Increased ALP” value (Grade 3–4) was 1 (5) n (%) and the “TEAE: Increased ALT” value (Grade 3–4) was 1 (5) n (%). For the same molecule, the “TEAE: Increased AST” value (Grade 3–4) was 1 (5) n (%), the “TEAE: Nausea” value (Grade 3–4) was 0 n (%) and the “TEAE: Neutropenia” value (Grade 3–4) was 0 n (%). The “TEAE: Peripheral edema” value (Grade 3–4) was 0 n (%), the “TEAE: Pyrexia” value (Grade 3–4) was 0 n (%) and the “TEAE: Subjects with any AE” value (Grade 3–4) was 11 (50) n (%). The “TEAE: Urinary tract infection” value (Grade 3–4) was 0 n (%), the “TEAE: Vomiting” value (Grade 3–4) was 1 (5) n (%) and the “TEAE: Weight decreased” value (Grade 3–4) was 0 n (%).
